For 17 molecules, inhibition results are on record in US12691101B2, “Compound and method for preventing or treating of respiratory diseases comprising the same as an active ingredient” (YONSEI UNIVERSITY, UNIVERSITY - INDUSTRY FOUNDATION (UIF), priority 2019, dated 2026).

For the first test, the target named is T1, human wild-type (WT)-pendrin (Homo sapiens, UniProt O43511).
T1 construct: expressed in transfected cells
T1 sequence (O43511 1-780): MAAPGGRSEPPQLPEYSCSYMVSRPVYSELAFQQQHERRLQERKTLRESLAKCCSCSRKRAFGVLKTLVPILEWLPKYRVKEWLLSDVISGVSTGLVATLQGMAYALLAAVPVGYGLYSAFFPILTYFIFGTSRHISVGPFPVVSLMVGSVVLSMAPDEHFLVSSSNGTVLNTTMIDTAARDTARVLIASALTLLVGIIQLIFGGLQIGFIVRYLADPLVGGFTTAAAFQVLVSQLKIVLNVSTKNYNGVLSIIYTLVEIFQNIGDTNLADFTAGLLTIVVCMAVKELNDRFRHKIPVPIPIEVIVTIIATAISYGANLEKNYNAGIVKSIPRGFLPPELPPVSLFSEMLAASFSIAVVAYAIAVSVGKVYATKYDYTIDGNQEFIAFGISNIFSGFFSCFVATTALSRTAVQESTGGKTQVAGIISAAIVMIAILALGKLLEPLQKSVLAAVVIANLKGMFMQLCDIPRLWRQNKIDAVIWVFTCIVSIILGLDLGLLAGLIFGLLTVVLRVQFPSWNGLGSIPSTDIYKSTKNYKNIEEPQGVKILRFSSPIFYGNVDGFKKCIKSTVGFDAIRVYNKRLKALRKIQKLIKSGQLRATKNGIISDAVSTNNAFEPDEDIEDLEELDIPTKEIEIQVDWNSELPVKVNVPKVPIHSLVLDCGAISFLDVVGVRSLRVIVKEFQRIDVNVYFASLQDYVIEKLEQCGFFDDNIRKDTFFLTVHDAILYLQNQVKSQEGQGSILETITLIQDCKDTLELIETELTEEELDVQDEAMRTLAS
The test is described as follows: Pendrin-mediated Cl^−/I^− exchange activity, YFP fluorescence in CHO-K1 cells. The test is classed as cell-based. As to conditions: CHO-K1, 30 μM; read-out: Pendrin inhibitory activity at 30 μM (%).
Regarding `CC(=O)Nc1ccc(S(=O)(=O)Oc2ccccc2C=C2N=C(c3ccc(Cl)cc3)OC2=O)cc1` [F77, 2-((2-(4-Chlorophenyl)-5-oxooxazol-4(5H)-ylidene)methyl)phenyl4-acetamido benzenesulfonate], the inhibition at 30 µM was 2.6%.

With `O=C1OC(c2ccccc2)=NC1=Cc1ccc(OC(=O)c2ccco2)cc1` [F78, 4-((5-oxo-2-phenyloxazol-4(5H)-ylidene)methyl)phenylfuran-2-carboxylate], the inhibition at 30 µM was found to be 1.7%.

Regarding `Cc1ccc(/C=C2\N=C(c3ccc(C4=N/C(=C\c5ccc(C)o5)C(=O)O4)cc3)OC2=O)o1` [F79, 2,2′-(1,4-phenylene)bis(4-((5-methylfuran-2-yl)methylene)oxazol-5(4H)-one)], the inhibition at 30 µM turned out to be 3.2%.

Turning to `CC(C)(C)c1ccc(C2=NC(=Cc3ccccc3OS(=O)(=O)c3ccccc3)C(=O)O2)cc1` [F80, 2-((2-(4-(tert-butyl)phenyl)-5-oxooxazol-4(5H)-ylidene)methyl)phenylbenznesulfonate], the inhibition at 30 µM is 1.9%.

As to `CC(=O)n1cc(C=C2N=C(c3ccc(C(C)(C)C)cc3)OC2=O)c2ccccc21` [F81, 4-((1-Acetyl-1H-indol-3-yl)methylene)-2-(4-(tert-butyl)phenyl)oxazol-5 (4H)-one], the inhibition at 30 µM is 3.4%.

For the molecule `CC(=O)n1cc(C=C2N=C(c3ccc(C(C)(C)C)cc3)OC2=O)c(-c2ccccc2)n1` [F82, 4-((1-Acetyl-3-phenyl-1H-pyrazol-4-yl)methylene)-2-(4-(tert-butyl)phenyl)oxazol-5 (4H)-one], the inhibition at 30 µM is 2.7%.

Turning to `Cc1ccc(C2=NC(=Cc3cn(-c4ccccc4)nc3-c3ccccc3)C(=O)O2)cc1` [F83, 4-((1,3-Diphenyl-1H-pyrazol-4-yl)methylene)-2-(p-tolyl)oxazol-5(4H)-one], the inhibition at 30 µM came to 2.4%.

Take `COc1ccc2[nH]c(=O)c(C=C3N=C(c4ccccc4)OC3=O)cc2c1` [F84, 4-((6-Methoxy-2-oxo-1,2-dihydroquinolin-3-yl)methylene)-2-phenyloxazol-5(4H)-one]: the inhibition at 30 µM came out at 3.4%.

`O=C1OC(c2ccccc2)=NC1=C1C=C(c2ccccc2)SC(c2ccccc2)=C1` [F85, 4-(2,6-Diphenyl-4H-thiopyran-4-ylidene)-2-phenyloxazol-5(4H)-one]: the inhibition at 30 µM was 2.9%.

For `COc1ccc(C2=NC(=Cc3cccs3)C(=O)O2)cc1` [F87, 2-(4-Methoxyphenyl)-4-(thiophen-2-ylmethylene)oxazol-5 (4H)-one], the inhibition at 30 µM is 3.6%.

As for `O=C1OC(c2ccc(Cl)cc2)=NC1=Cc1cccs1` [F88, 2-(4-Chlorophenyl)-4-(thiophen-2-ylmethylene)oxazol-5(4H)-one], the inhibition at 30 µM amounted to 2.4%.

As for `O=C1OC(c2cccs2)=NC1=Cc1cccs1` [F89, 2-(Thiophen-2-yl)-4-(thiophen-2-ylmethylene)oxazol-5(4H)-one], the inhibition at 30 µM was determined as 2.8%.

Take `CC(=O)Oc1ccc(C2=NC(=Cc3cccs3)C(=O)O2)cc1` [F90, 4-(5-Oxo-4-(thiophen-2-ylmethylene)-4,5-dihydrooxazol-2-yl)phenylacetate]: the inhibition at 30 µM is 3.3%.

For the molecule `O=C1OC(c2ccc(Cl)c([N+](=O)[O-])c2)=NC1=Cc1cccs1` [F91, 2-(4-Chloro-3-nitrophenyl)-4-(thiophen-2-ylmethylene)oxazol-5(4H)-one], the inhibition at 30 µM was 3.9%.

With `O=C1OC(c2ccccc2Cl)=NC1=Cc1cccs1` [F92, 2-(2-Chlorophenyl)-4-(thiophen-2-ylmethylene)oxazol-5(4H)-one], the inhibition at 30 µM came out at 2.2%.

Turning to `O=C1OC(c2ccc([N+](=O)[O-])cc2Cl)=NC1=Cc1cccs1` [F93, 2-(2-Chloro-4-nitrophenyl)-4-(thiophen-2-ylmethylene)oxazol-5(4H)-one], the inhibition at 30 µM turned out to be 2.5%.

The test is the same for the next values; noted with them: CHO-K1; read-out: Pendrin inhibitory activity at 30 μM (%).
With `CC(=O)Nc1ccc(C2=NC(=Cc3ccc(N(C)CCCl)cc3)C(=O)O2)cc1` [F86, N-(4-(4-(4-((2-chloroethyl)(methyl)amino)benzylidene)-5-oxo-4,5-dihydrooxazol-2-yl)phenyl)acetamide], the inhibition at 30 µM amounted to 3.3%.
